Source: publication PMC8001783, “New Lignanamides with Antioxidant and Anti-Inflammatory Activities Screened Out and Identified from Warburgia ugandensis Combining Affinity Ultrafiltration LC-MS with SOD and XOD Enzymes” (Antioxidants, 2021)
Where “and” joins values, the source holds several entries; their conditions need not be identical. Equal entries are not always repeated. Marks after values point to notes of the source that are not given here.

What was measured:
[1] = DPPH free radical scavenging assay; conditions: pure compounds; 30 min, 517 nm, n = 3
Protocol: The DPPH free radical scavenging activities of extracts and pure compounds from stem barks of W. ugandensis were tested according to previous studies with slight modifications. Firstly, 10 µL solutions of the samples, appropriately diluted with MeOH, were homogeneously mixed with 190 µL solution of DPPH (0.1 mM in MeOH) in a 96-well plate. Secondly, the mixtures were gently shaken and put at room temperature for 30 min in the darkness. Finally, the absorbance was recorded at 517 nm with multifunctional microplate reader. Trolox was used as positive control, and MeOH was used as blank control. Each of the samples and controls were tested in triplicate (n = 3). The antioxidant activities of DPPH were expressed as IC50 (concentration of samples caused 50% inhibition) and TEAC values. The TEAC values were calculated from the standard curve of Trolox and expressed as millimoles of Trolox equivalents per gram of sample (mmol TE/g). The inhibition of the DPPH radical was calculated according to the following formula:DPPH scavenging activity (%) = (1 − absorbance of sample/absorbance of blank control) × 100,(1) where DPPH scavenging activities (%) were plotted against the concentration of samples to obtain the IC50.

[2] = Ferric reducing antioxidant power (FRAP) assay; conditions: for FRAP value: 37 °C, 10 min, 593 nm, n = 3
Protocol: The ferric reducing antioxidant power assays on different extracts and pure compounds of stem barks from W. ugandensis were tested according to previous studies with slight modifications. Firstly, freshly prepared FRAP reagent (Fe^3+-TPTZ solution) was composed of FeCl3∙6H2O (20 mM in H2O), TPTZ (10 mM in 40 mM HCl), and acetate buffer (300 mM, pH = 3.6) at a ratio of 1:1:10 (v/v/v), then incubated at 37 °C after preparation, and used within 1–2 h. Secondly, 10 µL of appropriately diluted solution of samples was added to the 190 µL freshly prepared FRAP reagent in 96-well plate. Thirdly, the mixtures were gently shaken and put at 37 °C for 10 min. Finally, the absorbance was recorded at 593 nm with multifunctional microplate reader. Trolox was used as a positive control, and MeOH was used as blank control. Each of the samples and controls were tested in triplicate (n = 3). The antioxidant activities of FRAP were expressed as FRAP values and TEAC values. The FRAP values were calculated and expressed as millimoles of Fe^2+ equivalents per gram of sample (mmol Fe^2+/g) based on a calibration curve plotted using FeSO4∙7H2O as standard at a concentration ranging from 0.0185 to 1.5 mM.

xanthine oxidase (XOD) = test: Affinity ultrafiltration LC-MS/MS with XOD (relative binding affinity); design: key: -: No binding affinity; conditions: peaks of WUE-A4, XOD 2 U, 37 °C 1 h, n = 3
Protocol: (§1) The experimental conditions were proposed according to previous relevant studies. Briefly, the optimized experiment was composed of three steps. Incubation was the first step, where 100 μL WUE-A4 (10.0 mg/mL), 10 µL SOD (2 U) or XOD (2 U), and 90 µL Tris-HCl (pH = 7.8) were mixed well in 1.5 mL EP tubes, and then incubated at 37 °C in the dark for 1 h. Meanwhile, the incubation operations of inactivated enzymes (inactivated enzymes were obtained by heating enzymes in a 99 °C water bath for 10 min) were the same as the active enzymes. Adsorption was the second step, where the incubated solutions were transferred to ultrafiltration tubes with 30 KDa (for SOD) or 10 KDa (for XOD) ultrafiltration membranes and then centrifuged at 10,000 rpm for 10 min at 25 °C. Simultaneously, components which had no binding affinity to enzymes were washed out. Immediately, 300 µL of Tris-HCl solution (pH = 7.8) was added to the ultrafiltration tubes and centrifuged at 10,000 rpm for 5 min at 25 °C to remove the potential unbound components. Desorption was the third step, where 300 µL of 90% (v/v) MeOH-H2O was added and incubated for 10 min at room temperature, and the mixed solutions were centrifuged at 10,000 rpm for another 10 min at 25 °C. After that, the desorption process was repeated two times to release those components with specific bindings to SOD or XOD from the enzyme-ligand complexes. Finally, those ultrafiltrates were dried and reconstituted in 50 µL MeOH for the HPLC-UV/ESI-MS/MS analysis.
(§2) HPLC-UV/ESI-MS/MS was carried out to characterize the components in WUE-A4 before and after ultrafiltration by using a Thermo Accela 600 series HPLC connected with a TSQ Quantum Access MAX mass spectrometer (Thermo Fisher Scientific, San Jose, CA, USA). A Waters Symmetry RP-C18 column (4.6 × 250 mm, 5 µm) was used to perform chromatographic analysis at 30 °C, and the mobile phase consisted of H2O with 0.1% formic acid (A) and ACN (B). The optimized HPLC elution procedures were as follows: 0–15 min, 17% B; 15–40 min, 17–30% B, 40–42 min: 30–56% B. The flow rate was 0.8 mL/min, the injection volume was 10 µL, and the HPLC-UV chromatograms were detected at a wavelength of 254 nm. The negative ion modes were applied to obtained ESI-MS/MS data. Moreover, the parameters of instrument were set as follows: the vaporizer temperature was 350 °C, the capillary temperature was 250 °C, the spray voltage was 3000 V, the cone voltage energy was 40 V, the collision energy was 10 V, the sheath gas pressure was 40 psi, the aux gas pressure was 10 psi, the drying gas flow rate was 6.0 L/min, and the mass range was set from 50 to 1100 (m/z) in the full-scan mode. Finally, the Thermo Xcalibur ChemStation (Thermo Fisher Scientific) was used for data acquisition and analysis.
(§3) For further evaluation of the affinity binding strength between the potential ligands and the target enzymes, the relative binding affinity (RBA) was employed to compare the variation of the correlated peak areas in the UF-HPLC-UV chromatograms before and after activation. The RBA formula is expressed as RBA = Aactive/Ainactivated, where the Aactive and Ainactivated represent the peak areas obtained from the WUE-A4 samples with activated and inactivated SOD or XOD, respectively.

[3] = system: superoxide dismutase (SOD); test: Affinity ultrafiltration LC-MS/MS with SOD (relative binding affinity); design: key: -: No binding affinity; conditions: peaks of WUE-A4, SOD 2 U, 37 °C 1 h, n = 3
Protocol: as §1, §2, §3

Row | Molecule | IC50 [1] | FRAP value [2] | UF-RBA XOD (relative binding affinity = Aactive/Ainactivated) (xanthine oxidase (XOD)) | UF-RBA XOD (relative binding affinity = Aactive/Ainactivated) (xanthine oxidase (XOD); listed as peak 11) | UF-RBA SOD (relative binding affinity = Aactive/Ainactivated) [3] | UF-RBA SOD (relative binding affinity = Aactive/Ainactivated) ([3]; listed as peak 11) | UF-RBA SOD (relative binding affinity = Aactive/Ainactivated) ([3]; listed as peak 1) | total ferric-reducing antioxidant power (FRAP) [2] | UF-RBA XOD (relative binding affinity = Aactive/Ainactivated) (xanthine oxidase (XOD); listed as peak 14) | UF-RBA SOD (relative binding affinity = Aactive/Ainactivated) ([3]; listed as peak 14)
1 | 1-(3,4-dihydroxy-5-methoxyphenyl)-1,2-dihydroxy-7,8-dihydroxy-N-[(3,4-dihydroxyphenyl)-ethyl]-N′-[(4-hydroxyphenyl)-ethyl]-6-methoxynaphthalene-2,3-dicarboxamide [compound 11] | 59.1 ± 4.1 µM | 2.2 ± 0.1 ^c mmol Fe^2+/g | - | extremely low or no binding affinities | - | extremely low or no binding affinities |  |  |  | 
2 | C[C@@H]1O[C@@H](O[C@@H]2[C@@H](O)[C@H](O)[C@@H](CO)O[C@H]2c2cc(-c3cc(=O)c4c(O)cc(O)cc4o3)cc(O)c2O)[C@H](O)[C@H](O)[C@H]1O [compound 1, 2-[3-[2-O-(6-deoxy-α-L-mannopyranosyl)-β-D-glucopyranosyl]-4,5-dihydroxyphenyl]-5,7-dihydroxy-4H-1-benzopyran-4-one] | 25.8 ± 1.4 µM | 5.4 ± 0.7 ^b mmol Fe^2+/g | 1.2 ± 0.6 ^c,d |  | 1.9 ± 0.1 ^a,b,c |  | 1.93 |  |  | 
3 | O=C(/C=C/c1ccc(O)c(O)c1)NCCc1ccc(O)cc1 [compound 7, N-trans-caffeoyltyramine] | 636 ± 290 µM | 1.9 ± 0.1 ^c mmol Fe^2+/g | 1.1 ± 0.3 ^c,d |  | 1.1 ± 0.3 ^e |  |  |  |  | 
4 | COc1cc(C2c3c(cc(OC)c(O)c3O)C=C(C(=O)NCCc3ccc(O)cc3)C2C(=O)NCCc2ccc(O)cc2)cc(O)c1O (centres unmarked) [compound 13] | 115 ± 20.8 µM | 1.3 ± 0.2 ^c mmol Fe^2+/g | 1.3 ± 0.2 ^c,d |  | 1.3 ± 0.1 ^e |  |  |  |  | 
5 | COc1cc(C2c3c(cc(O)c(O)c3OC)C=C(C(=O)NCCc3ccc(O)cc3)C2C(=O)NCCc2ccc(O)cc2)cc(O)c1O (centres unmarked) [compound 14] | 6.41 µM and 6.4 µM | 17.488 ± 1.625 mmol Fe^2+/g and 17.5 ± 1.6 ^a mmol Fe^2+/g | 3.8 ± 0.5 ^a |  | 1.5 ± 0.1 ^c,d,e |  |  | 17.488 ± 1.625 mmol Fe^2+/g | 3.76 | 1.51
